{"source": "paper PMC11480993", "about": "“Combining Data-Driven and Structure-Based Approaches in Designing Dual PARP1-BRD4 Inhibitors for Breast Cancer Treatment” (Journal of Chemical Information and Modeling, 2024)", "key": {"[1]": {"test_system": "CFPAC-1 cell", "design": "method as in PMID 34813314, PMID 35091172, PMID 33532187, PMID 35442700, PMID 24481311", "conditions": "4 days; pancreatic cancer ref 15-19; cited from earlier work"}, "[2]": {"test_system": "SW1990 cell", "design": "method as in PMID 34813314, PMID 35091172, PMID 33532187, PMID 35442700, PMID 24481311", "conditions": "4 days; pancreatic cancer ref 15-19; cited from earlier work"}, "[3]": {"test_system": "Capan-1 cell", "design": "method as in PMID 34813314, PMID 35091172, PMID 33532187, PMID 35442700, PMID 24481311", "conditions": "4 days; pancreatic cancer ref 15-19; cited from earlier work"}, "[4]": {"test_system": "PARP1", "design": "method as in PMID 34813314, PMID 35091172, PMID 33532187, PMID 35442700, PMID 24481311", "conditions": "known dual PARP1-BRD4 inhibitors ref 15-19; cited from earlier work"}, "[5]": {"test_system": "BRD4", "conditions": "cited from earlier work"}, "[6]": {"molecular_target": "PARP1 (Homo sapiens, UniProt P09874)", "sequence (P09874 whole entry)": "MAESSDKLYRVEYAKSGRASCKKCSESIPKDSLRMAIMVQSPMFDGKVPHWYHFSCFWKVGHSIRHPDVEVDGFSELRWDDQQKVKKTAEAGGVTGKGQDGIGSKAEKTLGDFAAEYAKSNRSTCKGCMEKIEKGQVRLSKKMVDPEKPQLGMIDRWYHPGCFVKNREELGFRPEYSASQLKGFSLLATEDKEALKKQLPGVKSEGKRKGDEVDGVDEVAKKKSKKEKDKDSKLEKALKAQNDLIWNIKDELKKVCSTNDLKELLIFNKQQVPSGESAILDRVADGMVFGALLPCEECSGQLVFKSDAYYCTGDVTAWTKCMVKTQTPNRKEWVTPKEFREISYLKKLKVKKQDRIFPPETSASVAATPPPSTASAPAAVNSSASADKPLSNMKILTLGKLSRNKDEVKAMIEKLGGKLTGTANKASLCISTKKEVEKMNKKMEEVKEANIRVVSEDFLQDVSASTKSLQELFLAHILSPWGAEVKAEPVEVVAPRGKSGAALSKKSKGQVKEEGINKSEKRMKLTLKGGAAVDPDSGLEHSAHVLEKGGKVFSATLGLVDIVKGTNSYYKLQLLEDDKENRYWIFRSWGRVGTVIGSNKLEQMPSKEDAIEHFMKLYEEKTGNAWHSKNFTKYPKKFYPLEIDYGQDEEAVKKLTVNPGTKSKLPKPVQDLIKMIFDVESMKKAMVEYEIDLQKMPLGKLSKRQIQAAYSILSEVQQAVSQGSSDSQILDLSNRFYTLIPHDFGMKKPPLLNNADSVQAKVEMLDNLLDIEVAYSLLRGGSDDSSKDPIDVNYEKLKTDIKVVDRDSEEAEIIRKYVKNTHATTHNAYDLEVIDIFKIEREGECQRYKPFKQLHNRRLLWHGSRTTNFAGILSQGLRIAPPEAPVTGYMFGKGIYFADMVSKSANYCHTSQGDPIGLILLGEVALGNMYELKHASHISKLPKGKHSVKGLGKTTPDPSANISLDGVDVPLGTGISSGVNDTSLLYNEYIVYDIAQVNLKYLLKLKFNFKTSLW", "experiment": "In vitro PARP1 enzymatic activity (ELISA, biotinylated NAD+, luminescence)", "type": "biochemical", "method": "The inhibition of the tested compounds on PARP1 enzymatic activity was determined by ELISA in 96-well plates. Each well was precoated with histone (20 μg/mL) diluted in 100 μL of PBS buffer (10 mM NaH2PO4, 100 mM Na2HPO4, 150 mM NaCl, pH 7.4) by incubation at 4 °C overnight. […] The reaction was initiated by the addition of 20 μL of PARP1 (50 ng/well) at 30 °C for 1 h. Then the reaction solution was added to 50 μL of streptavidin conjugated HRP. The assay was performed at 30 °C for an additional 30 min. Finally, 100 μL of solution (H2O2 and luminol in citrate buffer 0.1 M, pH 5.4) was added and luminescent signal was measured using a multiwell spectrophotometer (Molecular Devices SpectraMax M5 microplate reader)."}, "[7]": {"test_system": "MDA-MB-231 cells", "experiment": "Cell viability (MTT), MDA-MB-231", "type": "cell-based", "conditions": "Homo sapiens, MDA-MB-231, 96 h; 4-day treatment, wild-type BRCA", "method": "(§1) MDA-MB-231, MDA-MB-436, and MCF-7 cells were seeded into 96-well plates with the number of 5 × 10^3 in each cell and allowed to incubate for 24 h. Subsequently, various concentrations of the test compounds (ranging from 100 to 0.78 μM with twice gradient dilution) were introduced. After 4 days of incubation, MTT solution was applied, and the cells were incubated for an additional 4 h. Following the removal of the supernatant, the violet crystals were dissolved in 200 μL of DMSO, and the absorbance was measured at 570 nm."}, "[8]": {"molecular_target": "BRD4 (Homo sapiens, UniProt O60885)", "experiment": "BRD TR-FRET assay, BRD4", "type": "binding", "method": "The assay was performed by TR-FRET technology using a BRD and its corresponding ligand (BET). The TR-FRET signal from the assay is correlated with the amount of ligand binding to the bromodomain. All of the binding reactions were conducted at room temperature. The 20 μL reaction mixture in Assay Buffer contains either bromodomains, BET Ligand, and the indicated amount of inhibitor. For the negative control (blank), 5 μL of the assay buffer was added instead of the BET ligand. The reaction mixture was incubated for 120 min. After the incubation with the ligand, the TR-FRET signal was measured using a Tecan Infinite M1000 plate reader."}, "[9]": {"test_system": "MCF-7 cells", "experiment": "Cell viability (MTT), MCF-7", "type": "cell-based", "conditions": "Homo sapiens, MCF7, 96 h; 4-day treatment, wild-type BRCA", "method": "as §1"}, "[10]": {"experiment": "Solubility observed during activity testing", "type": "physicochemical", "conditions": "compared with HF2", "method": "The inhibitory effects of both enzymes were measured for HF1 and HF2. […] The large discrepancy in BRD4 activities could be attributed to the nonplanar scaffold of HF1, which appears to fit more effectively into the hydrophobic environment formed by Val87, Phe83, and Ile146 (Figure 5B, right). […] Before proceeding further, we made the decision to examine PJ34, a potent and nonselective PARP1 inhibitor,[13] to assess its impact on BRD4 inhibition. […] Given the strong PARP1 activity and relatively low micromolar BRD4 activity of PJ34 relative to HF1 and HF2, we contemplated whether substituting PJ34’s scaffold with that of HF1 could synergistically enhance BRD4 affinity while maintaining strong PARP1 affinity."}, "[11]": {"test_system": "MDA-MB-231", "design": "method as in PMID 34813314, PMID 35091172, PMID 33532187, PMID 35442700, PMID 24481311", "conditions": "3 days; breast cancer ref 15-19; cited from earlier work"}, "[12]": {"test_system": "MDA-MB-468", "design": "method as in PMID 34813314, PMID 35091172, PMID 33532187, PMID 35442700, PMID 24481311", "conditions": "3 days; breast cancer ref 15-19; cited from earlier work"}, "[13]": {"test_system": "BRD4", "experiment": "Western blot, BRD4 expression in MCF-7 cells", "type": "cell-based", "conditions": "MCF-7, 48 h treatment", "method": "(§2) Following a 48 h treatment, cellular proteins were extracted using RIPA cell lysis buffer containing protease and phosphatase inhibitor cocktail. The protein concentration was assessed by using a BCA assay. Subsequently, equal amounts of these proteins were loaded onto an SDS-PAGE gel and transferred onto a PVDF membrane. The protein-loaded membrane was then blocked using a commercial blocking solution (Beyotime, China) and sequentially incubated with primary and secondary antibodies. Protein bands were visualized using an ECL chemiluminescence kit and quantified using ImageJ software."}, "[14]": {"test_system": "MDA-MB-436 cells", "experiment": "Cell viability (MTT), MDA-MB-436", "type": "cell-based", "conditions": "Homo sapiens, MDA-MB-436, 96 h; 4-day treatment, BRCA mutant", "method": "as §1"}, "[15]": {"test_system": "PARP1", "experiment": "Western blot, PARP1 expression in MCF-7 cells", "type": "cell-based", "conditions": "MCF-7, 48 h treatment", "method": "as §2"}, "[16]": {"conditions": "known dual PARP1-BRD4 inhibitors ref 15-19"}}, "note": "Read-outs that look alike come from different tables or passages of the source.", "data": [{"smiles": "Cc1noc(C)c1-c1ccc2c(c1)C(c1ccccc1)N(Cc1nc3c(C(N)=O)cccc3[nH]1)C(=O)N2C", "note": "(stereo not shown) [III-7]", "values": [{"measurement": "IC50", "setting": "[1]", "value": "1310 ± 110", "unit": "nM"}, {"measurement": "IC50", "setting": "[2]", "value": "1340 ± 160", "unit": "nM"}, {"measurement": "IC50", "setting": "[3]", "value": "1710 ± 210", "unit": "nM"}, {"measurement": "IC50", "setting": "[4]", "value": 49, "unit": "nM"}, {"measurement": "IC50", "setting": "[5]; [16]", "value": 202, "unit": "nM"}]}, {"smiles": "COc1ccccc1S(=O)(=O)Nc1ccc2c(c1)CN(C)C(=O)N2", "note": "[PFI-1, reference compound]", "values": [{"measurement": "inhibition at 10 µM", "setting": "[6]; 10 μM, read-out: PARP1 inhibition rate", "value": 10, "unit": "%"}, {"measurement": "IC50", "setting": "[5]", "value": 220, "unit": "nM"}]}, {"smiles": "Cc1cc(S(=O)(=O)Nc2ccc3[nH]c(=O)c4c(c3c2)CCCC4)ccc1F", "note": "[HF1, 4-fluoro-3-methyl-N-(6-oxo-5,6,7,8,9,10-hexahydrophenanthridin-2-yl)benzenesulfonamide]", "values": [{"measurement": "IC50", "setting": "[7]", "value": 31.9, "unit": "µM"}, {"measurement": "IC50", "setting": "[6]", "value": 94, "unit": "nM"}, {"measurement": "IC50", "setting": "[8]", "value": "3.56 ± 0.951", "unit": "µM"}, {"measurement": "BRD4 potency relative to HF2", "setting": "[8]; more potent than HF2", "value": 10, "unit": "times"}, {"measurement": "IC50", "setting": "[8]; value of the text", "value": 3.5, "unit": "µM"}, {"measurement": "IC50", "setting": "[9]", "value": 11.4, "unit": "µM"}, {"measurement": "solubility during activity testing", "setting": "[10]", "value": "higher solubility"}]}, {"smiles": "COc1cc(OC)c2c(=O)[nH]c(-c3cc(C)c(OCCO)c(C)c3)nc2c1", "note": "[RVX-208, apabetalone, reference compound]", "values": [{"measurement": "activity against PARP1", "setting": "[6]; at 10 μM", "value": "no activity"}]}, {"smiles": "CN(C)CC(=O)Nc1ccc2[nH]c(=O)c3c(c2c1)CCCC3", "note": "[HF3, 2-(dimethylamino)-N-(6-oxo-5,6,7,8,9,10-hexahydrophenanthridin-2-yl)acetamide]", "values": [{"measurement": "IC50", "setting": "[6]", "value": 16, "unit": "nM"}, {"measurement": "IC50", "setting": "[8]", "value": "28.8 ± 6.99", "unit": "µM"}, {"measurement": "IC50", "setting": "[8]; value of the text", "value": "~28", "unit": "µM"}]}, {"smiles": "COc1cc(OC)c2c(=O)[nH]c(-c3ccc(OCCOc4ccccc4C(N)=O)cc3)nc2c1", "note": "[ADTL-BPI1901]", "values": [{"measurement": "IC50", "setting": "[4]", "value": 4600, "unit": "nM"}, {"measurement": "IC50", "setting": "[11]", "value": "15.6 ± 1.72", "unit": "µM"}, {"measurement": "IC50", "setting": "[12]", "value": "6.42 ± 1.31", "unit": "µM"}, {"measurement": "IC50", "setting": "[5]; [16]", "value": 400, "unit": "nM"}]}, {"smiles": "Cc1sc2c(c1C)C(c1ccc(Cl)cc1)=N[C@@H](CC(=O)OC(C)(C)C)c1nnc(C)n1-2", "note": "[JQ1, reference compound]", "values": [{"measurement": "IC50", "setting": "[7]", "value": "1.2 ± 0.4", "unit": "µM"}, {"measurement": "BRD4 expression", "setting": "[13]", "value": "significantly enhances its levels"}, {"measurement": "IC50", "setting": "[9]", "value": "0.9 ± 0.1", "unit": "µM"}, {"measurement": "IC50", "setting": "[14]", "value": "4.7 ± 1.9", "unit": "µM"}, {"measurement": "PARP1 expression", "setting": "[15]", "value": "significant increase"}]}, {"smiles": "CCc1cc2cc(NC(=O)CN(C)C)ccc2[nH]c1=O", "note": "[HF5, 2-(dimethylamino)-N-(3-ethyl-2-oxo-1,2-dihydroquinolin-6-yl)acetamide]", "values": [{"measurement": "IC50", "setting": "[6]", "value": 736, "unit": "nM"}, {"measurement": "IC50", "setting": "[8]", "value": "34.3 ± 7.9", "unit": "µM"}, {"measurement": "IC50", "setting": "[8]; value of the text", "value": "~34.3", "unit": "µM"}]}, {"smiles": "CC[C@@H]1C(=O)N(C)c2cnc(N(C)c3ccc(-c4nc5c(C(N)=O)cccc5[nH]4)cc3OC)nc2N1C1CCCC1", "note": "[III-16]", "values": [{"measurement": "IC50", "setting": "[2]", "value": "980 ± 130", "unit": "nM"}, {"measurement": "IC50", "setting": "[4]", "value": 13, "unit": "nM"}, {"measurement": "IC50", "setting": "[5]; [16]", "value": 101, "unit": "nM"}]}, {"smiles": "O=C(c1cc(Cc2n[nH]c(=O)c3ccccc23)ccc1F)N1CCN(C(=O)C2CC2)CC1", "note": "[Olaparib, olaparib, reference compound]", "values": [{"measurement": "IC50", "setting": "[7]", "value": "13.9 ± 2.6", "unit": "µM"}, {"measurement": "IC50", "setting": "[9]", "value": "27.2 ± 3.5", "unit": "µM"}, {"measurement": "IC50", "setting": "[14]", "value": 2.2, "unit": "µM"}]}, {"smiles": "Cc1cc(S(=O)(=O)Nc2ccc3[nH]c(=O)c4ccccc4c3c2)ccc1F", "note": "[HF2]", "values": [{"measurement": "IC50", "setting": "[6]", "value": "339 ± 86", "unit": "nM"}, {"measurement": "IC50", "setting": "[8]", "value": "32.6 ± 6.34", "unit": "µM"}]}, {"smiles": "COc1cc(OC)c2c(=O)[nH]c(-c3cccc(Cc4n[nH]c(=O)c5ccccc45)c3)nc2c1", "note": "[BP44]", "values": [{"measurement": "IC50", "setting": "[4]", "value": 197, "unit": "nM"}, {"measurement": "IC50", "setting": "[11]", "value": "6.61 ± 0.58", "unit": "µM"}, {"measurement": "IC50", "setting": "[12]", "value": "3.01 ± 0.83", "unit": "µM"}, {"measurement": "IC50", "setting": "[5]; [16]", "value": 238, "unit": "nM"}]}, {"smiles": "CN(C)CC(=O)Nc1ccc2[nH]c(=O)c3ccccc3c2c1", "note": "[PJ34, 2-(dimethylamino)-N-(6-oxo-5,6-dihydrophenanthridin-2-yl)acetamide, reference compound]", "values": [{"measurement": "IC50", "setting": "[8]", "value": "2.07 ± 0.588", "unit": "µM"}]}]}
